Source: patent US6426339B1, “Formulations and methods for providing prolonged local anesthesia” (Children's Medical Center Corporation, priority 1996, dated 2002)
Entries after “also recorded” stand apart in the source; their conditions may differ.

Tests used:
sciatic nerve [1] = test: Sensory block: additives in the injection fluid with bupivacaine microspheres (Table 2); type: in vivo, rat; conditions: for sensory blockade latency: with bupivacaine microspheres, FIG. 5A
Method: Sensory anesthesia was measured by the time required for each rat to withdraw its hind paw from a 56° C. plate (IITC Life Science Instruments, Model 35-D, Woodland Hills, Calif.). The rats were allowed to adjust to their surroundings in a quiet room for at least 30 minutes before testing. The rats were held with a cloth gently. wrapped above their waist to restrain the upper extremities and obstruct vision. The rats were positioned to stand with one hind paw on a hot plate and the other on a room temperature plate. With a computer data collection system to (Apple IIe with a footpad switch), latency to withdraw each hind paw to the hot plate was recorded by alternating paws and allowing at least fifteen seconds of recovery between each measurement. If no withdrawal occurred from the hot plate within 12 seconds, the trial was terminated to prevent injury and the termination time was recorded. Testing ended after five measurements per side, the high and low points were disregarded, and the mean of the remaining three points was calculated for each side. Animals were handled in accordance with institutional, state and federal guidelines.
(§1) At least five rats were used in each test.
(§2) Sensory blockade or anesthesia effect was examined using art-known techniques. In addition, motor tests were performed at each time point to examined each rat's ability to hop and to place weight on it's hind leg by art-known techniques. Each leg was tested three times, and the latency of the contralateral leg was tested to provide a control. The animals were handled and cared for according to institution, state, and federal regulations.

sciatic nerve [2] = test: Motor block: additives in the injection fluid with bupivacaine microspheres (Table 2); type: in vivo, rat
Text: The rats were behaviorally tested for sensory and motor anesthesia in a quiet observation room. Testing was only performed in rats showing appropriate baseline hot plate latencies after at least-one week of testing. In all testing conditions, the experimenter recording the behavior was unaware of the side containing the local anesthetic. To assess motor anesthesia, a 4-point scale based on visual observation was devised: (1) normal appearance, (2) intact dorsiflexion of foot with an impaired ability to splay toes when elevated by the tail, (3) toes and foot remained plantar flexed with no splaying ability, and (4) loss of dorsiflexion, flexion of toes, and impairment of gait. For graphing clarity, partial motor anesthesia equals a score of 2 and dense motor anesthesia is a score of either 3 or 4.
as §1, §2

[3] = 0.05% in the suspending medium
Method: Male Sprague-Dawley Charles River Rats, weighing between 200 and 350 grams were used to test the ability of each additive to prolong blockade or anesthesia effect. 150 mg of bupivacaine per kg of rat and a known concentration of each of the additives were placed in 0.6 mls of injection vehicle (5 g/L medium molecular weight carboxymethylcellulose, 1 g/L Tween 80). If the additive was a solid, it was dissolved in ethanol and aliquots which varied in concentrations from 0.0220 mg/kg of rat, and added to the injection fluid. If the additive was in liquid form, it was added directly to the injection fluid. The microsphere/additive mixture was vortexed (Scientific Industries Vortex Genie®) at maximum speed for three minutes prior to injection. The injection was performed while the rats were under general anesthetic, by locating the greater trochanter and injecting slightly below and proximal to it. At least five rats were used in each test.

sciatic nerve [4] = test: Sciatic blockade by liquid bupivacaine and/or dexamethasone in solution (Table 1); type: in vivo, rat
Method: as §1, §2

sciatic nerve [5] = test: Restoration of waning sensory anesthesia by dexamethasone (hot plate latency); type: in vivo, rat; conditions: 0.032 mg/kg injected at the original site 6 hours after bupivacaine microspheres
Method: Sensory anesthesia was measured by the time required for each rat to withdraw its hind paw from a 56° C. plate (IITC Life Science Instruments, Model 35-D, Woodland Hills, Calif.). The rats were allowed to adjust to their surroundings in a quiet room for at least 30 minutes before testing. The rats were held with a cloth gently. wrapped above their waist to restrain the upper extremities and obstruct vision. The rats were positioned to stand with one hind paw on a hot plate and the other on a room temperature plate. With a computer data collection system to (Apple IIe with a footpad switch), latency to withdraw each hind paw to the hot plate was recorded by alternating paws and allowing at least fifteen seconds of recovery between each measurement. If no withdrawal occurred from the hot plate within 12 seconds, the trial was terminated to prevent injury and the termination time was recorded. Testing ended after five measurements per side, the high and low points were disregarded, and the mean of the remaining three points was calculated for each side. […]
Sensory latency was determined by the hot plate foot withdrawal method described above. […]

[6] = additive 0.032 mg/Kg rat with bupivacaine microspheres
[7] = additive 0.25 mg/Kg rat with bupivacaine microspheres
[8] = additive 0.8 mg/Kg rat with bupivacaine microspheres
[9] = additive 2.0 mg/Kg rat with bupivacaine microspheres
[10] = in the suspending medium with bupivacaine microspheres
[11] = additive 0.1 mg/Kg rat with bupivacaine microspheres
[12] = additive 3.1 mg/Kg rat with bupivacaine microspheres
[13] = additive 0.01 mg/Kg rat with bupivacaine microspheres
[14] = additive 0.125 mg/Kg rat with bupivacaine microspheres
[15] = additive 1.25 mg/Kg rat with bupivacaine microspheres
[16] = additive 10 mg/Kg rat with bupivacaine microspheres
[17] = additive 6.3 mg/Kg rat with bupivacaine microspheres
[18] = additive 2.1 mg/Kg rat with bupivacaine microspheres
[19] = additive 20 mg/Kg rat with bupivacaine microspheres
[20] = additive 1.0 mg/Kg rat with bupivacaine microspheres
[21] = additive 1.7 mg/Kg rat with bupivacaine microspheres
[22] = additive 0.02 mg/Kg rat with bupivacaine microspheres
[23] = additive 0.14 mg/Kg rat with bupivacaine microspheres

**Q.** With `C[C@H]1C[C@H]2[C@@H]3CCC4=CC(=O)C=C[C@]4(C)[C@@]3(F)[C@@H](O)C[C@]2(C)[C@@]1(O)C(=O)CO` [Betamethasone, betamethasone] as the molecule, how does the Sensory block (sciatic nerve [1]; [6]) read?
**A.** The Sensory block was 19.0 ± 4.0 h.

**Q.** And the Sensory block (sciatic nerve [1]; [7])?
**A.** Its Sensory block is 36.0 ± 10.0 h.

**Q.** And the Sensory block (sciatic nerve [1]; [8])?
**A.** The Sensory block was 46.0 ± 7.0 h.

**Q.** What about the Sensory block (sciatic nerve [1]; [9]) of the same molecule?
**A.** Its Sensory block is 44.0 ± 13.0 h.

**Q.** What about the “duration of prolonged blockade or local anesthesia effect” value (sciatic nerve [1]; [10]) of the same molecule?
**A.** Its value is “up to 45 hours”.

**Q.** And the Motor block (sciatic nerve [2]; [6])?
**A.** Its Motor block is 15.0 ± 4.0 h.

**Q.** And the Motor block (sciatic nerve [2]; [7])?
**A.** Its Motor block is 38.0 ± 11.0 h.

**Q.** What about the Motor block (sciatic nerve [2]; [8]) of the same molecule?
**A.** The Motor block was 39.0 ± 5.0 h.

**Q.** And the Motor block (sciatic nerve [2]; [9])?
**A.** The Motor block was 39.0 ± 11.0 h.

**Q.** What does the source list for `CC(C)CCC[C@@H](C)[C@H]1CC[C@H]2[C@@H]3CC=C4C[C@@H](O)CC[C@]4(C)[C@H]3CC[C@]12C` [Cholesterol]?
**A.** prolongation of blockade compared with bupivacaine microspheres (in words) (sciatic nerve [1]; 0.3 mg/kg incorporated into bupivacaine loaded microspheres): did not result in a prolongation of blockade or anesthesia effect; Sensory block (sciatic nerve [1]; [11]): 4.0 ± 0.4 h; Sensory block (sciatic nerve [1]; [12]): 8.0 ± 3.0 h; Motor block (sciatic nerve [2]; [11]): 4.0 ± 1.0 h; Motor block (sciatic nerve [2]; [12]): 5.0 ± 1.0 h

**Q.** With `CNC[C@H](O)c1ccc(O)c(O)c1` [Epinephrine] as the molecule, how does the Sensory block (sciatic nerve [1]; [13]) read?
**A.** The Sensory block was 12.0 ± 6.0 h.

**Q.** And the Sensory block (sciatic nerve [1]; [11])?
**A.** The Sensory block was 14.0 ± 5.0 h.

**Q.** What about the “degree of prolongation of blockade (in words)” value (sciatic nerve [1]; [10]) of the same molecule?
**A.** Its value is “did not substantially prolong”.

**Q.** What about the Motor block (sciatic nerve [2]; [13]) of the same molecule?
**A.** Its Motor block is 12.0 ± 4.0 h.

**Q.** What about the Motor block (sciatic nerve [2]; [11]) of the same molecule?
**A.** The Motor block was 11.0 ± 3.0 h.

**Q.** What about the “systemic toxicity (in words)” value [3] of the same molecule?
**A.** The value was “considerable systemic toxicity, but no deaths”.

**Q.** Which results are given for `C[C@]12CC[C@@H]3c4ccc(O)cc4CC[C@H]3[C@@H]1CC[C@@H]2O` [Estradiol]?
**A.** Sensory block (sciatic nerve [1]; [14]): 11.0 ± 6.0 h; Sensory block (sciatic nerve [1]; [15]): 8.0 ± 1.0 h; degree of prolongation of blockade (in words) (sciatic nerve [1]; [10]): no blockade-prolonging effect; Motor block (sciatic nerve [2]; [14]): 12.0 ± 6.0 h; Motor block (sciatic nerve [2]; [15]): 9.0 ± 2.0 h

**Q.** Which results are given for `C[C@]12CCC(=O)C=C1CC[C@@H]1[C@@H]2[C@@H](O)C[C@@]2(C)[C@H]1CC[C@]2(O)C(=O)CO` [Hydrocortisone, hydrocortisone]?
**A.** Sensory block (sciatic nerve [1]; [11]): 10.0 ± 3.0 h; Sensory block (sciatic nerve [1]; [15]): 15.0 ± 5.0 h; Sensory block (sciatic nerve [1]; [16]): 36.0 ± 10.0 h; degree of prolongation of blockade (in words) (sciatic nerve [1]; [10]): mild, but statistically significant prolongation; also recorded: cannot be made as effective as dexamethasone; Motor block (sciatic nerve [2]; [11]): 10.0 ± 3.0 h; Motor block (sciatic nerve [2]; [15]): 16.0 ± 3.0 h; Motor block (sciatic nerve [2]; [16]): 31.0 ± 8.0 h

**Q.** With `O=C(c1ccccc1)c1ccc2n1CCC2C(=O)O` (stereo not shown) [Ketoralac] as the molecule, how does the Sensory block (sciatic nerve [1]; [9]) read?
**A.** The Sensory block was 6.0 ± 0.7 h.

**Q.** What about the Sensory block (sciatic nerve [1]; [17]) of the same molecule?
**A.** Its Sensory block is 8.0 ± 2.0 h.

**Q.** What about the Motor block (sciatic nerve [2]; [9]) of the same molecule?
**A.** Its Motor block is 7.0 ± 0.4 h.

**Q.** And the Motor block (sciatic nerve [2]; [17])?
**A.** Its Motor block is 10.0 ± 4.0 h.

**Q.** What does the source list for `C[C@H]1C[C@@H]2[C@H]([C@@H](O)C[C@@]3(C)[C@H]2CC[C@]3(O)C(=O)CO)[C@@]2(C)C=CC(=O)C=C12` [Methylprednisolone, methylprednisolone]?
**A.** Sensory block (sciatic nerve [1]; [11]): 20.0 ± 5.0 h; Sensory block (sciatic nerve [1]; [18]): 28.0 ± 6.0 h; Sensory block (sciatic nerve [1]; [19]): 34.0 ± 11.0 h; Motor block (sciatic nerve [2]; [11]): 13.0 ± 4.0 h; Motor block (sciatic nerve [2]; [18]): 28.0 ± 5.0 h; Motor block (sciatic nerve [2]; [19]): 33.0 ± 9.0 h

**Q.** Which Sensory block (sciatic nerve [1]; [9]) does the source give for `CC(=O)[C@H]1CC[C@H]2[C@@H]3CCC4=CC(=O)CC[C@]4(C)[C@H]3CC[C@]12C` [Progesterone] here?
**A.** Its Sensory block is 8.0 ± 1.0 h.

**Q.** And the Motor block (sciatic nerve [2]; [9])?
**A.** The Motor block was 6.0 ± 1.0 h.

**Q.** Which results are given for `C[C@]12CC[C@H]3[C@@H](CCC4=CC(=O)CC[C@@]43C)[C@@H]1CC[C@@H]2O` [Testosterone]?
**A.** Sensory block (sciatic nerve [1]; [20]): 7.0 ± 2.0 h; Sensory block (sciatic nerve [1]; [21]): 15.0 ± 5.0 h; degree of prolongation of blockade (in words) (sciatic nerve [1]; [10]): mild prolongation; Motor block (sciatic nerve [2]; [20]): 6.0 ± 1.0 h; Motor block (sciatic nerve [2]; [21]): 15.0 ± 5.0 h

**Q.** For `CCCCN1CCCCC1C(=O)Nc1c(C)cccc1C` (stereo not shown) [bupivacaine], which “LENGTH OF Blockade or anesthesia effect” value (sciatic nerve [4]; bupivacaine 3 mg/kg rat, no dexamethasone) is on record?
**A.** The value was 2 to 3 h.

**Q.** And the “effect on duration of blockade obtained using bupivacaine microspheres (in words)” value (sciatic nerve [1]; addition of 0.005% (w/w) to the suspending medium)?
**A.** Its value is “did not result in a prolongation”.

**Q.** Which “LENGTH OF Blockade or anesthesia effect” value (sciatic nerve [4]; bupivacaine 3 mg/kg rat plus dexamethasone 0.16 mg/kg rat) does the source give for `C[C@@H]1C[C@H]2[C@@H]3CCC4=CC(=O)C=C[C@]4(C)[C@@]3(F)[C@@H](O)C[C@]2(C)[C@@]1(O)C(=O)CO` [dexamethasone] here?
**A.** Its value is 2 to 3 h.

**Q.** And the “LENGTH OF Blockade or anesthesia effect” value (sciatic nerve [4]; bupivacaine 3 mg/kg rat plus dexamethasone 1.6 mg/kg rat)?
**A.** The value was 2 to 3 h.

**Q.** And the “LENGTH OF Blockade or anesthesia effect” value (sciatic nerve [4]; dexamethasone 0.16 mg/kg rat, no bupivacaine)?
**A.** Its value is 0 h.

**Q.** And the Sensory block (sciatic nerve [1]; [22])?
**A.** Its Sensory block is 17.0 ± 11.0 h.

**Q.** And the Sensory block (sciatic nerve [1]; [23])?
**A.** The Sensory block was 47.0 ± 8.0 h.

**Q.** What about the Sensory block (sciatic nerve [1]; [9]) of the same molecule?
**A.** Its Sensory block is 36.0 ± 19.0 h.

**Q.** What about the sensory blockade latency (sciatic nerve [1]; after 50 hours) of the same molecule?
**A.** The sensory blockade latency was “about 7 seconds”.

**Q.** And the sensory blockade latency (sciatic nerve [1]; after 100 hours)?
**A.** The sensory blockade latency was “about 2.5 seconds”.

**Q.** And the sensory blockade latency (sciatic nerve [1]; initial)?
**A.** Its sensory blockade latency is 12 s.

**Q.** What about the Motor block (sciatic nerve [2]; [22]) of the same molecule?
**A.** The Motor block was 19.0 ± 8.0 h.

**Q.** And the Motor block (sciatic nerve [2]; [23])?
**A.** Its Motor block is 38.0 ± 5.0 h.

**Q.** And the Motor block (sciatic nerve [2]; [9])?
**A.** Its Motor block is 34.0 ± 12.0 h.

**Q.** What about the “hot plate sensory latency after restoration” value (sciatic nerve [5]) of the same molecule?
**A.** The value was “about 11 sec”.
